Converted amounts (≈) assume the structure as drawn. Like-named read-outs stand apart in the source and are kept apart here.
Key:
Assay in all cases: Antibacterial activity (MIC), agar dilution
Assay type in all cases: cell-based
E. coli GN5482** = settings: Escherichia coli, 20 h; E. coli GN5482, cephalospolinase-producing; 10^6 cells per ml; read-out: MIC
Text: (§1) The amount of bacteria inoculated was 10^4 cells per plate (10^6 cells per ml).
(§2) ** Cephalospolinase-producing bacteria

Pro. vulgaris GN76** = settings: Proteus vulgaris, 20 h; Pro. vulgaris GN76, cephalospolinase-producing; 10^6 cells per ml; read-out: MIC
Text: as §1, §2

St. aureus FDA209P = settings: Staphylococcus aureus, FDA209P, 20 h, St. aureus FDA209P; 10^6 cells per ml; 37° C., 20 hours; read-out: MIC
Text: as §1

Ent. cloacae IID977 = settings: Enterobacter cloacae, IID977, 20 h, Ent. cloacae IID977; 10^6 cells per ml; 37° C., 20 hours; read-out: MIC
Text: as §1

Pro. vulgaris GN3027 = settings: Proteus vulgaris, GN3027, 20 h, Pro. vulgaris GN3027; 10^6 cells per ml; 37° C., 20 hours; read-out: MIC
Text: as §1

Pro. mirabilis T-111 = settings: Proteus mirabilis, 37° C.
Text: as §1

Aci. antitratus A-6 = settings: 20 h, Aci. antitratus A-6; 10^6 cells per ml; 37° C., 20 hours; read-out: MIC
Text: as §1

Kl. pneumoniae Y-50 = settings: Klebsiella pneumoniae, Y50, 20 h, 10^6 cells per ml, 37° C., read-out: MIC
Text: as §1

E. coli TK-111 = settings: Escherichia coli, TK111, 20 h, E. coli TK-111; 10^6 cells per ml; 37° C., 20 hours; read-out: MIC
Text: as §1

Ps. aeruginosa S-68 = settings: Pseudomonas aeruginosa
Text: as §1

Pro. morganii T-216 = settings: Morganella morganii, 37° C.
Text: as §1

Kl. pneumoniae Y-41 = settings: Klebsiella pneumoniae, Y41, 10^6 cells per ml, 37° C., 20 hours, read-out: MIC
Text: as §1

E. coli NIHJ JC-2 = settings: Escherichia coli, NIHJJC2, 20 h, E. coli NIHJ JC-2; 10^6 cells per ml; 37° C., 20 hours; read-out: MIC
Text: as §1

Ps. aeruginosa IFO3445 = settings: Pseudomonas aeruginosa
Text: as §1

Kl. pneumoniae Y-4* = settings: Klebsiella pneumoniae, 20 h, Kl. pneumoniae Y-4, penicillinase-producing; 10^6 cells per ml; read-out: MIC
Text: as §1
(§3) * Penicillinase-producing bacteria

St. aureus F-137* = settings: Staphylococcus aureus, 20 h, St. aureus F-137, penicillinase-producing; 10^6 cells per ml; read-out: MIC
Text: as §1, §3

Ps. aeruginosa GN3379* = settings: Pseudomonas aeruginosa, Ps. aeruginosa GN3379, penicillinase-producing, 10^6 cells per ml
Text: as §1, §3

E. coli TK-3* = settings: Escherichia coli, 20 h, E. coli TK-3, penicillinase-producing; 10^6 cells per ml; read-out: MIC
Text: as §1, §3

Ps. aeruginosa GN918** = settings: Pseudomonas aeruginosa, Ps. aeruginosa GN918, cephalospolinase-producing, 10^6 cells per ml
Text: as §1, §2

[1] = T216, 10^6 cells per ml, 20 hours, read-out: MIC
[2] = T111, 10^6 cells per ml, 20 hours, read-out: MIC
[3] = Ps. aeruginosa IFO3445, 10^6 cells per ml, 37° C., 20 hours, read-out: MIC
[4] = S68, Ps. aeruginosa S-68, 10^6 cells per ml, 37° C., 20 hours, read-out: MIC

## O=C(O)c1cn(-c2ccc(O)cc2)c(-c2ccc(-c3ccc(O)cc3)s2)cc1=O
E. coli GN5482**
  MIC: ≤ 0.05 µg/mL
Pro. vulgaris GN76**
  MIC: 0.78 µg/mL (≈ 1.92 µM)
St. aureus FDA209P
  MIC: 0.1 µg/mL (≈ 0.247 µM)
Ent. cloacae IID977
  MIC: 1.56 µg/mL (≈ 3.85 µM)
Pro. vulgaris GN3027
  MIC: 0.39 µg/mL (≈ 0.962 µM)
Pro. mirabilis T-111; T111, 20 h, 10^6 cells per ml
  MIC: 6.25 µg/mL (≈ 15.4 µM)
Aci. antitratus A-6
  MIC: 0.78 µg/mL (≈ 1.92 µM)
Kl. pneumoniae Y-50
  MIC: 0.78 µg/mL (≈ 1.92 µM)
E. coli TK-111
  MIC: ≤ 0.05 µg/mL
Ps. aeruginosa S-68; S68, 20 h
  MIC: 6.25 µg/mL (≈ 15.4 µM)
Pro. morganii T-216; [1]
  MIC: 1.56 µg/mL (≈ 3.85 µM)
Kl. pneumoniae Y-41
  MIC: 3.13 µg/mL (≈ 7.72 µM)
E. coli NIHJ JC-2
  MIC: 0.39 µg/mL (≈ 0.962 µM)
Ps. aeruginosa IFO3445; IFO3445, 20 h
  MIC: 3.13 µg/mL (≈ 7.72 µM)
Kl. pneumoniae Y-4*
  MIC: 6.25 µg/mL (≈ 15.4 µM)
St. aureus F-137*
  MIC: 0.2 µg/mL (≈ 0.493 µM)
Ps. aeruginosa GN3379*; GN3379, 20 h
  MIC: 3.13 µg/mL (≈ 7.72 µM)
E. coli TK-3*
  MIC: 0.78 µg/mL (≈ 1.92 µM)

## O=C(O)c1cn(-c2ccc(O)cc2F)c(-c2ccc(N3CCCC3)cc2)cc1=O
E. coli GN5482**
  MIC: ≤ 0.05 µg/mL
Pro. vulgaris GN76**
  MIC: 0.78 µg/mL (≈ 1.98 µM)
Ps. aeruginosa GN918**; 20 h, read-out: MIC
  MIC: 0.78 µg/mL (≈ 1.98 µM)
St. aureus FDA209P
  MIC: ≤ 0.05 µg/mL
Ent. cloacae IID977
  MIC: 0.78 µg/mL (≈ 1.98 µM)
Pro. vulgaris GN3027
  MIC: 0.2 µg/mL (≈ 0.507 µM)
Pro. mirabilis T-111; [2]
  MIC: 0.78 µg/mL (≈ 1.98 µM)
Aci. antitratus A-6
  MIC: ≤ 0.05 µg/mL
Kl. pneumoniae Y-50
  MIC: 0.39 µg/mL (≈ 0.989 µM)
E. coli TK-111
  MIC: ≤ 0.05 µg/mL
Ps. aeruginosa S-68; S68, 20 h
  MIC: 3.13 µg/mL (≈ 7.94 µM)
Pro. morganii T-216; [1]
  MIC: 0.78 µg/mL (≈ 1.98 µM)
Kl. pneumoniae Y-41
  MIC: 1.56 µg/mL (≈ 3.96 µM)
E. coli NIHJ JC-2
  MIC: 0.2 µg/mL (≈ 0.507 µM)
Ps. aeruginosa IFO3445; [3]
  MIC: 6.25 µg/mL (≈ 15.8 µM)
Kl. pneumoniae Y-4*
  MIC: 3.13 µg/mL (≈ 7.94 µM)
St. aureus F-137*
  MIC: ≤ 0.05 µg/mL
Ps. aeruginosa GN3379*; GN3379, 20 h
  MIC: 3.13 µg/mL (≈ 7.94 µM)

## COc1ccc(-c2ccc(-c3cc(=O)c(C(=O)O)cn3-c3ccc(O)cc3)s2)cc1
E. coli GN5482**
  MIC: ≤ 0.05 µg/mL
Pro. vulgaris GN76**
  MIC: 0.39 µg/mL (≈ 0.93 µM)
St. aureus FDA209P
  MIC: 0.1 µg/mL (≈ 0.238 µM)
Ent. cloacae IID977
  MIC: 0.78 µg/mL (≈ 1.86 µM)
Pro. vulgaris GN3027
  MIC: 0.2 µg/mL (≈ 0.477 µM)
Pro. mirabilis T-111; T111, 20 h, 10^6 cells per ml
  MIC: 1.56 µg/mL (≈ 3.72 µM)
Aci. antitratus A-6
  MIC: 0.39 µg/mL (≈ 0.93 µM)
Kl. pneumoniae Y-50
  MIC: 0.78 µg/mL (≈ 1.86 µM)
E. coli TK-111
  MIC: 0.1 µg/mL (≈ 0.238 µM)
Ps. aeruginosa S-68; S68, 20 h
  MIC: 1.56 µg/mL (≈ 3.72 µM)
Pro. morganii T-216; [1]
  MIC: 0.78 µg/mL (≈ 1.86 µM)
Kl. pneumoniae Y-41
  MIC: 1.56 µg/mL (≈ 3.72 µM)
E. coli NIHJ JC-2
  MIC: 0.39 µg/mL (≈ 0.93 µM)
Ps. aeruginosa IFO3445; IFO3445, 20 h
  MIC: 3.13 µg/mL (≈ 7.46 µM)
Kl. pneumoniae Y-4*
  MIC: 3.13 µg/mL (≈ 7.46 µM)
St. aureus F-137*
  MIC: 0.1 µg/mL (≈ 0.238 µM)
Ps. aeruginosa GN3379*; 20 h, read-out: MIC
  MIC: 6.25 µg/mL (≈ 14.9 µM)
E. coli TK-3*
  MIC: 0.78 µg/mL (≈ 1.86 µM)

## Cc1cc(O)ccc1-n1cc(C(=O)O)c(=O)cc1-c1ccc(-c2cccs2)cc1
E. coli GN5482**
  MIC: ≤ 0.05 µg/mL
Pro. vulgaris GN76**
  MIC: 0.2 µg/mL (≈ 0.496 µM)
Ps. aeruginosa GN918**; 20 h, read-out: MIC
  MIC: 0.78 µg/mL (≈ 1.93 µM)
St. aureus FDA209P
  MIC: ≤ 0.05 µg/mL
Ent. cloacae IID977
  MIC: 0.39 µg/mL (≈ 0.967 µM)
Pro. vulgaris GN3027
  MIC: ≤ 0.05 µg/mL
Pro. mirabilis T-111; [2]
  MIC: 0.39 µg/mL (≈ 0.967 µM)
Kl. pneumoniae Y-50
  MIC: 0.39 µg/mL (≈ 0.967 µM)
E. coli TK-111
  MIC: ≤ 0.05 µg/mL
Ps. aeruginosa S-68; [4]
  MIC: 1.56 µg/mL (≈ 3.87 µM)
Pro. morganii T-216; [1]
  MIC: 0.39 µg/mL (≈ 0.967 µM)
Kl. pneumoniae Y-41
  MIC: 0.78 µg/mL (≈ 1.93 µM)
E. coli NIHJ JC-2
  MIC: 0.1 µg/mL (≈ 0.248 µM)
Ps. aeruginosa IFO3445; [3]
  MIC: 6.25 µg/mL (≈ 15.5 µM)
Kl. pneumoniae Y-4*
  MIC: 0.78 µg/mL (≈ 1.93 µM)
St. aureus F-137*
  MIC: ≤ 0.05 µg/mL
Ps. aeruginosa GN3379*; 20 h, read-out: MIC
  MIC: 3.13 µg/mL (≈ 7.76 µM)
E. coli TK-3*
  MIC: 0.39 µg/mL (≈ 0.967 µM)

## O=C(O)c1cn(-c2ccc(O)cc2)c(-c2ccc3occc3c2)cc1=O
E. coli GN5482**
  MIC: ≤ 0.05 µg/mL
Pro. vulgaris GN76**
  MIC: 0.78 µg/mL (≈ 2.25 µM)
Ps. aeruginosa GN918**; GN918, 20 h
  MIC: 1.56 µg/mL (≈ 4.49 µM)
St. aureus FDA209P
  MIC: 0.2 µg/mL (≈ 0.576 µM)
Ent. cloacae IID977
  MIC: 0.78 µg/mL (≈ 2.25 µM)
Pro. vulgaris GN3027
  MIC: ≤ 0.05 µg/mL
Pro. mirabilis T-111; T111, 20 h, 10^6 cells per ml
  MIC: 3.13 µg/mL (≈ 9.01 µM)
Aci. antitratus A-6
  MIC: 0.78 µg/mL (≈ 2.25 µM)
Kl. pneumoniae Y-50
  MIC: 0.39 µg/mL (≈ 1.12 µM)
E. coli TK-111
  MIC: 0.2 µg/mL (≈ 0.576 µM)
Ps. aeruginosa S-68; [4]
  MIC: 6.25 µg/mL (≈ 18 µM)
Pro. morganii T-216; [1]
  MIC: 0.78 µg/mL (≈ 2.25 µM)
Kl. pneumoniae Y-41
  MIC: 1.56 µg/mL (≈ 4.49 µM)
E. coli NIHJ JC-2
  MIC: 0.39 µg/mL (≈ 1.12 µM)
Ps. aeruginosa IFO3445; [3]
  MIC: 12.5 µg/mL (≈ 36 µM)
Kl. pneumoniae Y-4*
  MIC: 3.13 µg/mL (≈ 9.01 µM)
St. aureus F-137*
  MIC: 0.39 µg/mL (≈ 1.12 µM)
Ps. aeruginosa GN3379*; 20 h, read-out: MIC
  MIC: 6.25 µg/mL (≈ 18 µM)

## Cc1nc2cc(-c3cc(=O)c(C(=O)O)cn3-c3ccc(O)cc3)ccc2s1
E. coli GN5482**
  MIC: ≤ 0.05 µg/mL
Pro. vulgaris GN76**
  MIC: 1.56 µg/mL (≈ 4.12 µM)
Ps. aeruginosa GN918**; 20 h, read-out: MIC
  MIC: 1.56 µg/mL (≈ 4.12 µM)
St. aureus FDA209P
  MIC: 0.39 µg/mL (≈ 1.03 µM)
Ent. cloacae IID977
  MIC: 1.56 µg/mL (≈ 4.12 µM)
Pro. vulgaris GN3027
  MIC: 0.39 µg/mL (≈ 1.03 µM)
Pro. mirabilis T-111; T111, 20 h, 10^6 cells per ml
  MIC: 3.13 µg/mL (≈ 8.27 µM)
Kl. pneumoniae Y-50
  MIC: 0.78 µg/mL (≈ 2.06 µM)
E. coli TK-111
  MIC: 0.1 µg/mL (≈ 0.264 µM)
Ps. aeruginosa S-68; [4]
  MIC: 6.25 µg/mL (≈ 16.5 µM)
Pro. morganii T-216; T216, 20 h, 10^6 cells per ml
  MIC: 3.13 µg/mL (≈ 8.27 µM)
Kl. pneumoniae Y-41
  MIC: 3.13 µg/mL (≈ 8.27 µM)
E. coli NIHJ JC-2
  MIC: 0.39 µg/mL (≈ 1.03 µM)
Ps. aeruginosa IFO3445; [3]
  MIC: 12.5 µg/mL (≈ 33 µM)
Kl. pneumoniae Y-4*
  MIC: 3.13 µg/mL (≈ 8.27 µM)
St. aureus F-137*
  MIC: 0.78 µg/mL (≈ 2.06 µM)
Ps. aeruginosa GN3379*; 20 h, read-out: MIC
  MIC: 6.25 µg/mL (≈ 16.5 µM)
E. coli TK-3*
  MIC: 0.78 µg/mL (≈ 2.06 µM)

Source: US4698352A, “4-oxo-1,4-dihydronicotinic acid derivatives, salts thereof, and antibacterial agents containing the same” (Toyama Chemical Co., Ltd., priority 1982, dated 1987)
